The target in assay [1] is GSPT1 (Homo sapiens (Human), UniProt P15170+Q96SW2). Put plainly: Immunofluorescence assay for GSPT1 degradation in CAL-Si cells. Conditions: CAL-Si cells. The format is cell-based. On the procedure: The compounds were tested in an immunofluorescence assay for their activity to bind to degrade GSPT1. CAL-Si cells were purchased from DSMZ (cat. Number ACC302), sub-cultured in 90% Dulbecco's MEM (4.5 g/L glucose, Gibco 11965)+10% heat inactivated FBS (BioConcept, 2-01F136I) and incubated at 37° C., 5% CO2. For the assay, imaging microtiterplate Cell Carrier 96 Ultra (Perkin Elmer 6055302) were pre-coated with Fibronectin (Sigma F085, 30 μl at 0.2 μg/ml) in PBS (100 μl, Gibco 14190) for 45 min at room temperature, rinsed with PBS and CAL-Si cells (30K cells/well) were plated and let to adhere overnight. Cells were treated with compounds typically using a serial dilution ranging from 30 μM to 0.1 nM for 6 hours. Compounds were stored at 10 mM DMSO stocks. Vehicle (DMSO), positive (CC-885, 10 μM) and rescue controls (positive control plus 0.2 μM bortezomib) were also included at this stage. Cells were subsequently rinsed with PBS and fixed in 10% Formalin solution (50 μl, Sigma HT5011)) for 20 mins at room temperature. Following three consecutive PBS washes (100 μl), cells were permeabilized in 0.1% Triton X-100 in PBS (Sigma 93443, 50 μl) for 15 mins at room temperature. Following three further PBS washes, 50 μl blocking buffer (1% BSA, Sigma A4503, in PBS) was added for 45 min for signal-to-noise reduction.
Chain of GSPT1 (P15170 whole entry): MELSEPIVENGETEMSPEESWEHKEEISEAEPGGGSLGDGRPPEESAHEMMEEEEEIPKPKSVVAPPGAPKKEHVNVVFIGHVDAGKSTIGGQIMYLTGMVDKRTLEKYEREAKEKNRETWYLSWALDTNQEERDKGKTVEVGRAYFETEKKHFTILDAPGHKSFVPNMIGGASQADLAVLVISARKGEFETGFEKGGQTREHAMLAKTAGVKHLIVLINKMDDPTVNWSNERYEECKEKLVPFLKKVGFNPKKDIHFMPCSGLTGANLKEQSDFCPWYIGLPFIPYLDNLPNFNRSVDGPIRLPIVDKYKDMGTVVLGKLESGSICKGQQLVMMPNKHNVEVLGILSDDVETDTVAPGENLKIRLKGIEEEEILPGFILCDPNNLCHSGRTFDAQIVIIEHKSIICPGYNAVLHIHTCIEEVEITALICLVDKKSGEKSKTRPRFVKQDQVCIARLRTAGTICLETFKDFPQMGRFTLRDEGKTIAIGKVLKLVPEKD
Chain of GSPT1 (Q96SW2 whole entry): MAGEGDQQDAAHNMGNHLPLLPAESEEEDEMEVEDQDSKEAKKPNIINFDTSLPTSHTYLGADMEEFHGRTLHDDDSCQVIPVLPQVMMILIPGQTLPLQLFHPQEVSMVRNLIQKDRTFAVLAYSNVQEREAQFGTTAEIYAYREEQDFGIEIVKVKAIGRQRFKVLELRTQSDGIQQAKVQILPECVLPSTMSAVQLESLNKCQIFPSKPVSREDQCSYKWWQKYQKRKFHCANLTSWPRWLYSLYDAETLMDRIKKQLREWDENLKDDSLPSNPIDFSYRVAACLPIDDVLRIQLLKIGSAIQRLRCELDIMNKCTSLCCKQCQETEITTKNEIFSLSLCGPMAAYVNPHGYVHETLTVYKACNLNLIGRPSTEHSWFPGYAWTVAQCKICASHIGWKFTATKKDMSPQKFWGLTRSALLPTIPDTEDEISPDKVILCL
Chain of GSPT1 (Q16531 whole entry partner): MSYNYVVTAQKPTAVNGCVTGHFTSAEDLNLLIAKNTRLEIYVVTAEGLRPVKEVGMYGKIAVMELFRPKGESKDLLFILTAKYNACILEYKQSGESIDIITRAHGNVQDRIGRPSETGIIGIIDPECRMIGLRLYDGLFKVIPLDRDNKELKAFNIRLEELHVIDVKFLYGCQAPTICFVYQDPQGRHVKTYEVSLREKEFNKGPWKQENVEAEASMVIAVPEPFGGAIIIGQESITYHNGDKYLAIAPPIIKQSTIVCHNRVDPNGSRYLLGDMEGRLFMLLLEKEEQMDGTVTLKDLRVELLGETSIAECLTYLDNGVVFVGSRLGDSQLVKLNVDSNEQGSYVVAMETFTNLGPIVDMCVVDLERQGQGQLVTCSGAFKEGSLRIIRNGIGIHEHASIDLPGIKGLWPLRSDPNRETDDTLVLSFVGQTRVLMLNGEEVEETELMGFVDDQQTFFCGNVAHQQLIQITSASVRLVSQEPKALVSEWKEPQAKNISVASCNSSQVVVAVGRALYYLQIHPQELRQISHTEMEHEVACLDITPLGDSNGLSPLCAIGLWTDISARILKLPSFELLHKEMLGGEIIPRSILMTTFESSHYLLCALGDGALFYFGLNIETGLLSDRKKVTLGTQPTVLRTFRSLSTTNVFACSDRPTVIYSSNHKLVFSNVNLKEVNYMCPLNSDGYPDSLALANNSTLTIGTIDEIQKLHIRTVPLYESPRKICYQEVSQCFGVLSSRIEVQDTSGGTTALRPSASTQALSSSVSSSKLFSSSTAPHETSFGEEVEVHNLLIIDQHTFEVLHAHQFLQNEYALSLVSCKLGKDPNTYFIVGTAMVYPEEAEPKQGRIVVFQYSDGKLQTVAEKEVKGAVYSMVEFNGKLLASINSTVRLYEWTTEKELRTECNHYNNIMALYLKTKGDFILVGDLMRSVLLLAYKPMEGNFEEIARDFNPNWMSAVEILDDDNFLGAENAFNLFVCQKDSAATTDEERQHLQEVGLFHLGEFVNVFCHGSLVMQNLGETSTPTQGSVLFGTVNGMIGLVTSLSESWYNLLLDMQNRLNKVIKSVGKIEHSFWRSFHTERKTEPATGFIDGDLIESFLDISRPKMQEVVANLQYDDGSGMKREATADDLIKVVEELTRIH
Primary antibody (human GSPT1, Sigma HPA052488) was diluted in blocking buffer (dil.1/300, 35 μl/well) and incubated with the cells overnight at 4° C. After three PBS washes, Alexa-fluor 488 coupled secondary antibodies (Invitrogen, A32731, dil.1/1000), Alexa-fluor 647-Phalloïdin (Invitrogen, A22287, dil.1/200) and DAPI (Thermo, #62248, dil.1/1000) were diluted in blocking buffer and incubated with the samples for 2 hours at room temperature. After three final PBS washes, samples were conserved in 100 μl PBS in the dark, until measurement. Image acquisition was performed on the Operetta High-Content Imager (Perkin-Elmer). Fluorescence intensity of Alexa-Fluor 488 (GSPT1), Alexa-Fluor 647 (Actin) and DAPI (Nucleus) were measured. For the determination of GSPT1 DC50 values, a custom algorithm implemented in the PerkinElmer image analysis software Harmony-Acapella® was developed. After user-defined setting of adjustment parameters, the analysis was run identically without human intervention for all image fields. DAPI staining of the nuclei was used to determine the location of cells using standard nuclei detection modules. Segmentation artifacts were removed by threshold-based filters for area, roundness and intensity. The outline of the cells was determined analogously from the sum of the normalized, smoothed DAPI and Actin channel, starting from each nucleus. The Alexa-Fluor 488 (GSPT1) signal intensity in each cell was finally measured, in order to obtain a Mean intensity per cell. GSPT1 degradation (DC50) was calculated after normalization to controls and data import in CDD vault Database, using non-linear regression.

The target in assay [2] is Full length wild-type cereblon CRBN (Homo sapiens (Human), UniProt Q96SW2). The assay can be described thus: Fluorescence polarization (FP) assay, cereblon binding. The protocol:
Compound activity was monitored in a fluorescence polarization (FP) homogeneous assay using 1-[5-({2-[2-(2-{[2-(2,6-dioxopiperidin-3-yl)-1,3-dioxo-2,3-dihydro-1H-isoindol-4-yl]oxy}acetamido)ethoxy]ethyl}carbamoyl)pentyl]-3,3-dimethyl-2-[(1E,3E)-5-[(2E)-1,3,3-trimethyl-5-sulfo-2,3-dihydro-1H-indol-2-ylidene]penta-1,3-dien-1-yl]-3H-indol-1-ium-5-sulfonate as a fluorescent probe. Unless otherwise stated, all reagents were purchased from Sigma Aldrich. Enzymatic reactions were conducted in Perkin-Elmer Black 384 well ProxiPlate Plus (catalogue no. 6008269) in 10 sL total volume. Full length wild-type cereblon CRBN (80.0 nM, 10 sL) was incubated in assay buffer containing 20 mM HEPES (pH 8.0), […], 0.5 mM TCEP and 0.05% Tween 20 in the presence or absence of compound (300 nL). Inhibitors were stored as 10 mM DMSO stocks in an inert environment (low humidity, dark, low oxygen, room temperature) using the Storage Pod System.
Compounds and DMSO were dispensed using the Echo E5XX (Labcyte Inc. USA) to give concentrations from 300 to 0.937 or 3000 to 9.3 nM in a 12 data point curve. […] Following incubation at room temperature for 30 min, the assay was initiated by dispensing the probe to a final concentration of 5 nM (2.5 nL of a 20 μM stock) using the Echo E5XX. FP was measured after a period of 12 hours using a Pherastar plate reader (BMG Labtech, Germany) exciting at 590 nm and measuring the amount of parallel and perpendicular light at 675 nm. The FP signal was subsequently normalized to the no-compound control (i.e., DMSO). Analysis and IC50 values were derived using Dotmatics (Dotmatics UK) software.

The mark [3] stands for this setting: compounds with code A, read-out: DC50 value code.
Setting [4] is: treated 6 hours, read-out: Code, activity for GSPT1 degradation (DC50).
Where [5] appears, read: cereblon binding, bound, read-out: IC50 value.
[6] abbreviates: wild-type CRBN 80.0 nM, probe 5 nM, FP measured after 12 hours, read-out: rFP IC50.

pIC50: −log10 of the molar value. Read-outs that look alike come from different tables or passages of the source. A value given as a limit tells only on which side of the number the result lay.

Chain of Full length wild-type cereblon CRBN (Q96SW2 whole entry): as the sequence (Q96SW2 whole entry) above

Consider `COc1cc(COC(=O)Nc2ccc(N3CCCCC3C)nc2)cc2c1CN(C1CCC(=O)NC1=O)C2=O` (stereo not drawn) [Compound 38, (2-(2,6-dioxopiperidin-3-yl)-7-methoxy-3-oxoisoindolin-5-yl)methyl(6-(2-methylpiperidin-1-yl)pyridin-3-yl)carbamate], for which the DC50 in assay [1] (setting [3]) and in assay [1] (setting [4]) was less than 30 nM in each case. Besides, the pIC50 in assay [2] (setting [5]) was more than 6.22; in assay [2] (setting [6]) it was not below 6.22.
For `CC1(c2ccc(NC(=O)OCc3cc(F)c4c(c3)C(=O)N(C3CCC(=O)NC3=O)C4)cc2)CC1` (stereo not drawn) [Compound 13, (2-(2,6-dioxopiperidin-3-yl)-7-fluoro-3-oxoisoindolin-5-yl)methyl (4-(1-methylcyclopropyl)phenyl)carbamate], in assay [1] (setting [4]), the DC50 lay in the range of 30 to 300 nM. Besides, the pIC50 in assay [2] (setting [6]) was less than 5.72.
Regarding `COc1cc(COC(=O)Nc2ccc(-c3ccccc3F)nc2)cc2c1CN(C1CCC(=O)NC1=O)C2=O` (stereo not drawn) [Compound 36, (2-(2,6-dioxopiperidin-3-yl)-7-methoxy-3-oxoisoindolin-5-yl)methyl (6-(2-fluorophenyl)pyridin-3-yl)carbamate], the DC50 in assay [1] (setting [3]) and in assay [1] (setting [4]) was less than 30 nM each time. For the same molecule, the pIC50 in assay [2] (setting [5]) is more than 6.22; in assay [2] (setting [6]) it was 5.72 to 5.92.
For `Cc1ccc(NC(=O)OCc2cc(Br)c3c(c2)C(=O)N(C2CCC(=O)NC2=O)C3)cc1Cl` (stereo not drawn) [Compound 1, (7-bromo-2-(2,6-dioxopiperidin-3-yl)-3-oxoisoindolin-5-yl)methyl(3-chloro-4-methylphenyl)carbamate], the DC50 in assay [1] (setting [4]) lay in the range of 30 to 300 nM. The pIC50 in assay [2] (setting [6]) was less than 5.72.
Take `COc1cc(COC(=O)Nc2ccc(-c3ccccc3)nc2)cc2c1CN(C1CCC(=O)NC1=O)C2=O` (stereo not drawn) [Compound 45, (2-(2,6-dioxopiperidin-3-yl)-7-methoxy-3-oxoisoindolin-5-yl)methyl(6-phenylpyridin-3-yl)carbamate]: the DC50 in assay [1] (setting [3]) and in assay [1] (setting [4]) was less than 30 nM throughout. Also, the pIC50 is more than 6.22 in assay [2] (setting [5]) and 5.92 to 6.22 in assay [2] (setting [6]).
Consider `O=C1CCC(N2Cc3c(F)cc(COC(=O)Nc4cc(Cl)cc(OC(F)F)c4)cc3C2=O)C(=O)N1` (stereo not drawn) [Compound 34, (2-(2,6-dioxopiperidin-3-yl)-7-fluoro-3-oxoisoindolin-5-yl)methyl(3-chloro-5-(difluoromethoxy)phenyl)carbamate], for which, in assay [1] (setting [4]), the DC50 fell in the range of 30 to 300 nM. The pIC50 in assay [2] (setting [6]) is less than 5.72.
As to `COc1cc(COC(=O)Nc2ccc(C)c(Cl)c2)cc2c1CN(C1CCC(=O)NC1=O)C2=O` (stereo not drawn) [Compound 5, (2-(2,6-dioxopiperidin-3-yl)-7-methoxy-3-oxoisoindolin-5-yl)methyl(3-chloro-4-methylphenyl)carbamate], the DC50 in assay [1] (setting [3]) and in assay [1] (setting [4]) was less than 30 nM throughout. Further, the pIC50 was more than 6.22 in assay [2] (setting [5]) and 5.92 to 6.22 in assay [2] (setting [6]).
Regarding `O=C1CCC(N2Cc3c(F)cc(COC(=O)Nc4ccc(-c5ccccc5)nc4)cc3C2=O)C(=O)N1` (stereo not drawn) [Compound 8, (2-(2,6-dioxopiperidin-3-yl)-7-fluoro-3-oxoisoindolin-5-yl)methyl(6-phenylpyridin-3-yl)carbamate], the DC50 in assay [1] (setting [3]) and in assay [1] (setting [4]) was less than 30 nM each time. Further, in assay [2] (setting [6]), the pIC50 is less than 5.72.
Take `O=C1CCC(N2Cc3c(F)cc(COC(=O)Nc4cccc(OC(F)F)c4)cc3C2=O)C(=O)N1` (stereo not drawn) [Compound 26, (2-(2,6-dioxopiperidin-3-yl)-7-fluoro-3-oxoisoindolin-5-yl)methyl(3-(difluoromethoxy)phenyl)carbamate]: the DC50 in assay [1] (setting [4]) fell in the range of 30 to 300 nM. The values for the pIC50 in assay [2] (setting [5]) and in assay [2] (setting [6]) were more than 6.22 and 5.72 to 5.92, respectively.
On the same counts, the results for `O=C1CCC(N2Cc3c(F)cc(COC(=O)Nc4ccc(F)c(OC(F)F)c4)cc3C2=O)C(=O)N1` (stereo not drawn) [Compound 7, (2-(2,6-dioxopiperidin-3-yl)-7-fluoro-3-oxoisoindolin-5-yl)methyl(3-(difluoromethoxy)-4-fluorophenyl)carbamate] are 30 to 300 nM, more than 6.22 and 5.72 to 5.92.
In the same order, the values of `COc1cc(COC(=O)Nc2ccc(C)c(OC(F)F)c2)cc2c1CN(C1CCC(=O)NC1=O)C2=O` (stereo not drawn) [Compound 48, (2-(2,6-dioxopiperidin-3-yl)-7-methoxy-3-oxoisoindolin-5-yl)methyl (3-(difluoromethoxy)-4-methylphenyl) carbamate] are 30 to 300 nM, more than 6.22 and 5.72 to 5.92.
For the molecule `O=C1CCC(N2Cc3c(F)cc(COC(=O)Nc4ccc(-c5ccccn5)cc4)cc3C2=O)C(=O)N1` (stereo not drawn) [Compound 11, (2-(2,6-dioxopiperidin-3-yl)-7-fluoro-3-oxoisoindolin-5-yl)methyl (4-(pyridin-2-yl)phenyl)carbamate], the DC50 in assay [1] (setting [3]) and in assay [1] (setting [4]) was less than 30 nM in each case. For the same molecule, the figures for the pIC50 in assay [2] (setting [5]) and in assay [2] (setting [6]) were more than 6.22 and not below 6.22, respectively.
As for `COc1cc(COC(=O)Nc2ccc(-c3ccccn3)cc2)cc2c1CN(C1CCC(=O)NC1=O)C2=O` (stereo not drawn) [Compound 42, (2-(2,6-dioxopiperidin-3-yl)-7-methoxy-3-oxoisoindolin-5-yl)methyl (4-(pyridin-2-yl)phenyl)carbamate], the DC50 in assay [1] (setting [3]) and in assay [1] (setting [4]) was less than 30 nM in each case. Moreover, the pIC50 in assay [2] (setting [5]) was more than 6.22; in assay [2] (setting [6]) it was 5.92 to 6.22.
For `O=C1CCC(N2Cc3c(F)cc(COC(=O)Nc4cccc(OC(F)(F)F)c4)cc3C2=O)C(=O)N1` (stereo not drawn) [Compound 15, (2-(2,6-dioxopiperidin-3-yl)-7-fluoro-3-oxoisoindolin-5-yl)methyl (3-(trifluoromethoxy)phenyl)carbamate], in assay [1] (setting [4]), the DC50 was 30 to 300 nM. In assay [2] (setting [6]), the pIC50 is less than 5.72.
As to `Cc1ccccc1-c1ccc(NC(=O)OCc2cc(F)c3c(c2)C(=O)N(C2CCC(=O)NC2=O)C3)cn1` (stereo not drawn) [Compound 19, (2-(2,6-dioxopiperidin-3-yl)-7-fluoro-3-oxoisoindolin-5-yl)methyl (6-(o-tolyl)pyridin-3-yl)carbamate], the DC50 in assay [1] (setting [3]) and in assay [1] (setting [4]) was less than 30 nM each time. In addition, the pIC50 is more than 6.22 in assay [2] (setting [5]) and not below 6.22 in assay [2] (setting [6]).
In the case of `COc1cc(COC(=O)Nc2ccc3c(c2)OCC3(C)C)cc2c1CN(C1CCC(=O)NC1=O)C2=O` (stereo not drawn) [Compound 37, (2-(2,6-dioxopiperidin-3-yl)-7-methoxy-3-oxoisoindolin-5-yl) methyl(3,3-dimethyl-2,3-dihydrobenzofuran-6-yl)carbamate], the DC50 in assay [1] (setting [3]) and in assay [1] (setting [4]) was less than 30 nM throughout. The pIC50 in assay [2] (setting [5]) is more than 5.92.

A word on the DC50: it is the midpoint of the concentration-degradation curve. The pIC50 is the negative decadic logarithm of the IC50, by convention in mol/L.

(Values after patent US20240051936A1, “ISOINDOLINONE COMPOUNDS” (Monte Rosa Therapeutics, Inc., priority 2021, published 2024).)
